Data reported in US20230295197A1, “STAT5 and STAT6 Degraders and Uses Thereof” (REGENTS OF THE UNIVERSITY OF MICHICAN, priority 2022, published 2023).
Where two headings read alike, the source gives them in different places.

Target: T1, STAT6 (Homo sapiens, UniProt P42226)
T1 construct: endogenous in cells; host or cells: MOLM-16, KU-812, SKNO1, MB231, L1236
T1 sequence (P42226 1-847): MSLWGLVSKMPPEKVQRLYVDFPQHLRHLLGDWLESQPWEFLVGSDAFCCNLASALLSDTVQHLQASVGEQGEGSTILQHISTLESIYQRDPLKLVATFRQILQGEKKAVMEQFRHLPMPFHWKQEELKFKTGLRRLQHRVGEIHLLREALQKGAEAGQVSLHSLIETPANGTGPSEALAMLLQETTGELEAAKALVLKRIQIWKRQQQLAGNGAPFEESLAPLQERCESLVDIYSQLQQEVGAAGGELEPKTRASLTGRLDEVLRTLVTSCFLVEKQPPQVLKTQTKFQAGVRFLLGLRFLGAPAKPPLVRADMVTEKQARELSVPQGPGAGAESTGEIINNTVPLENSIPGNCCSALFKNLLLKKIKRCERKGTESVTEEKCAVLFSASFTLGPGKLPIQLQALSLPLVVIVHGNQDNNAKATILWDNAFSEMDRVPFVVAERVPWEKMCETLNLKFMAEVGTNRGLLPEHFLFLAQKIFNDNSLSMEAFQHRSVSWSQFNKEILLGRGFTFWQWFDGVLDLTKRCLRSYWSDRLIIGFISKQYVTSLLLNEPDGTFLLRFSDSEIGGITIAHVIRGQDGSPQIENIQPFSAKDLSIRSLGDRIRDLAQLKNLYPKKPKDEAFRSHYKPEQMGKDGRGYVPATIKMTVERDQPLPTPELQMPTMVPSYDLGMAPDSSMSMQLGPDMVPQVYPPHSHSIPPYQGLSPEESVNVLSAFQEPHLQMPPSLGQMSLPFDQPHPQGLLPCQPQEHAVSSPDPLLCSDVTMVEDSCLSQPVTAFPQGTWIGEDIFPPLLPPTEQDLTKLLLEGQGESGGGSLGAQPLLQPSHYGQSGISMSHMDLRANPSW
Assay: Immunoblotting (Western blot) analysis of STAT6 degradation efficiency of degraders in treated cells
Type: cell-based
Procedure, shortened: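 About 1 million cells per point, grown in 10% FBS medium at 37 °C/5% CO2, were exposed to compound at the indicated concentrations and times, then lysed in RIPA buffer with protease and phosphatase inhibitors. Equal protein (20-40 μg) was resolved by SDS-PAGE, blotted to PVDF, and probed with anti-STAT5, anti-STAT6 and anti-GAPDH antibodies.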

[1] = MOLM-16 cells, class symbols, read-out: DC50 S6 MOLM-16
[2] = L1236 cells, read-out: DC50 S6 L1236

Structure (SMILES)	DC50 [1] [µM]	also measured
CC(C)(C)[C@H](NC(=O)c1cc2cc(C(F)(F)P(=O)(O)O)ccc2s1)C(=O)N1CCN(C(=O)CC(=O)NCCCCCCCCCC#Cc2ccc3c(c2)C(=O)N(C2CCC(=O)NC2=O)C3=O)C[C@H]1C(=O)N1CCO[C@H](c2ccccc2)C1 (stereo partly drawn) [Compound 520, ((2-(((2S)-1-((2S)-4-(3-((11-(2-(2,6-dioxopiperidin-3-yl)-1,3-dioxoisoindolin-5-yl)undec-10-yn-1-yl)amino)-3-oxopropanoyl)-2-((R)-2-phenylmorpholine-4-carbonyl)piperazin-1-yl)-3,3-dimethyl-1-oxobutan-2-yl)carbamoyl)benzo[b]thiophen-5-yl)difluoromethyl)phosphonic acid]	> 10	
Cc1cc([C@H](C(=O)N2C[C@H](O)C[C@H]2C(=O)N[C@@H](CC(=O)NCCCCCCCCCCNC(=O)CCN(C(=O)[C@@H]2CCCN2C(=O)[C@@H](NC(=O)c2cc3cc(C(F)(F)P(=O)(O)O)ccc3s2)C(C)(C)C)c2ccc(Br)cc2)c2ccc(-c3scnc3C)cc2)C(C)C)on1 [Compound 407, ((2-(((S)-1-((S)-2-((4-bromophenyl)(3-((10-((S)-3-((2S,4R)-4-hydroxy-1-((R)-3-methyl-2-(3-methylisoxazol-5-yl)butanoyl)pyrrolidine-2-carboxamido)-3-(4-(4-methylthiazol-5-yl)phenyl)propanamido)decyl)amino)-3-oxopropyl)carbamoyl)pyrrolidin-1-yl)-3,3-dimethyl-1-oxobutan-2-yl)carbamoyl)benzo[b]thiophen-5-yl)difluoromethyl)phosphonic acid]		DC50 (MB231 cells, read-out: DC50 S6 MB231): > 10 µM
CC(C)(C)[C@H](NC(=O)c1cc2cc(C(F)(F)P(=O)(O)O)ccc2s1)C(=O)N1C[C@@H](OCCCCCCCCC#Cc2cccc3c2CN(C2CCC(=O)NC2=O)C3=O)C[C@H]1C(=O)N1CCO[C@H](c2ccccc2)C1 (stereo partly drawn) [Compound 586, ((2-(((2S)-1-((2S,4S)-4-((10-(2-(2,6-dioxopiperidin-3-yl)-1-oxoisoindolin-4-yl)dec-9-yn-1-yl)oxy)-2-((R)-2-phenylmorpholine-4-carbonyl)pyrrolidin-1-yl)-3,3-dimethyl-1-oxobutan-2-yl)carbamoyl)benzo[b]thiophen-5-yl)difluoromethyl)phosphonic acid]	< 0.1	DC50 [2]: 1 to 10 µM
Cc1ncsc1-c1ccc([C@H](C)NC(=O)[C@@H]2C[C@@H](O)CN2C(=O)[C@@H](NC(=O)CCCCNC(=O)COc2ccc3c(c2)CN(C(=O)[C@@H](NC(=O)c2cc4cc(C(F)(F)P(=O)(O)O)ccc4s2)C(C)(C)C)[C@H](C(=O)N2CCO[C@H](c4ccccc4)C2)C3)C(C)(C)C)cc1 [Compound 464, (difluoro(2-(((S)-1-((S)-7-(2-((5-(((S)-1-((2S,4R)-4-hydroxy-2-(((S)-1-(4-(4-methylthiazol-5-yl)phenyl)ethyl)carbamoyl)pyrrolidin-1-yl)-3,3-dimethyl-1-oxobutan-2-yl)amino)-5-oxopentyl)amino)-2-oxoethoxy)-3-((R)-2-phenylmorpholine-4-carbonyl)-3,4-dihydroisoquinolin-2(1H)-yl)-3,3-dimethyl-1-oxobutan-2-yl)carbamoyl)benzo[b]thiophen-5-yl)methyl)phosphonic acid]	> 10	DC50 [2]: > 10 µM
CC(C)(C)[C@H](NC(=O)c1cc2cc(C(F)(F)P(=O)(O)O)ccc2s1)C(=O)N1CCN(C(=O)CC(=O)NCCC#Cc2ccc3c(c2)C(=O)N(C2CCC(=O)NC2=O)C3=O)C[C@H]1C(=O)N1CCO[C@H](c2ccccc2)C1 (stereo partly drawn) [Compound 510, ((2-(((2S)-1-((2S)-4-(3-((4-(2-(2,6-dioxopiperidin-3-yl)-1,3-dioxoisoindolin-5-yl)but-3-yn-1-yl)amino)-3-oxopropanoyl)-2-((R)-2-phenylmorpholine-4-carbonyl)piperazin-1-yl)-3,3-dimethyl-1-oxobutan-2-yl)carbamoyl)benzo[b]thiophen-5-yl)difluoromethyl)phosphonic acid]	> 10	
CC(C)(C)[C@H](NC(=O)c1cc2cc(C(F)(F)P(=O)(O)O)ccc2s1)C(=O)N1C[C@@H](OCC(=O)NCCCCCCCCC#Cc2cccc3c2C(=O)N(C2CCC(=O)NC2=O)C3=O)C[C@H]1C(=O)N1CCO[C@H](c2ccccc2)C1 (stereo partly drawn) [Compound 489, ((2-(((2S)-1-((2S,4S)-4-(2-((10-(2-(2,6-dioxopiperidin-3-yl)-1,3-dioxoisoindolin-4-yl)dec-9-yn-1-yl)amino)-2-oxoethoxy)-2-((R)-2-phenylmorpholine-4-carbonyl)pyrrolidin-1-yl)-3,3-dimethyl-1-oxobutan-2-yl)carbamoyl)benzo[b]thiophen-5-yl)difluoromethyl)phosphonic acid]	> 10	
Cc1ncsc1-c1ccc([C@H](C)NC(=O)[C@@H]2C[C@@H](O)CN2C(=O)[C@@H](NC(=O)CCCCCCCCNC(=O)COc2ccc3c(c2)CN(C(=O)[C@@H](NC(=O)c2cc4cc(C(F)(F)P(=O)(O)O)ccc4s2)C(C)(C)C)[C@H](C(=O)N2CCO[C@H](c4ccccc4)C2)C3)C(C)(C)C)cc1 [Compound 468, (difluoro(2-(((S)-1-((S)-7-(2-((9-(((S)-1-((2S,4R)-4-hydroxy-2-(((S)-1-(4-(4-methylthiazol-5-yl)phenyl)ethyl)carbamoyl)pyrrolidin-1-yl)-3,3-dimethyl-1-oxobutan-2-yl)amino)-9-oxononyl)amino)-2-oxoethoxy)-3-((R)-2-phenylmorpholine-4-carbonyl)-3,4-dihydroisoquinolin-2(1H)-yl)-3,3-dimethyl-1-oxobutan-2-yl)carbamoyl)benzo[b]thiophen-5-yl)methyl)phosphonic acid]	> 10	DC50 [2]: > 10 µM
CC(C)(C)[C@H](NC(=O)c1cc2cc(C(F)(F)P(=O)(O)O)ccc2s1)C(=O)N1C[C@@H](OCCCCCCC#Cc2cccc3c2CN(C2CCC(=O)NC2=O)C3=O)C[C@H]1C(=O)N1CCOC(c2cccs2)C1 (some centres unmarked) [Compound 611]		DC50 (MOLM-16 cells, numeric bound, read-out: DC50 S6 MOLM-16): > 0.3 µM
CC(C)(C)[C@H](NC(=O)c1cc2cc(C(F)(F)P(=O)(O)O)ccc2s1)C(=O)N1Cc2cc(OCC(=O)NCCCCC#Cc3cccc4c3C(=O)N(C3CCC(=O)NC3=O)C4=O)ccc2C[C@H]1C(=O)N1CCC[C@H](c2ccccc2)C1 (stereo partly drawn) [Compound 555, ((2-(((2S)-1-((3S)-7-(2-((6-(2-(2,6-dioxopiperidin-3-yl)-1,3-dioxoisoindolin-4-yl)hex-5-yn-1-yl)amino)-2-oxoethoxy)-3-((R)-3-phenylpiperidine-1-carbonyl)-3,4-dihydroisoquinolin-2(1H)-yl)-3,3-dimethyl-1-oxobutan-2-yl)carbamoyl)benzo[b]thiophen-5-yl)difluoromethyl)phosphonic acid]	> 10	
CC(C)(C)[C@H](NC(=O)c1cc2cc(C(F)(F)P(=O)(O)O)ccc2s1)C(=O)N1C[C@@H](OCC(=O)NCC#Cc2ccc3c(c2)C(=O)N(C2CCC(=O)NC2=O)C3=O)C[C@H]1C(=O)N1CCO[C@H](c2ccccc2)C1 (stereo partly drawn) [Compound 480, ((2-(((2S)-1-((2S,4S)-4-(2-((3-(2-(2,6-dioxopiperidin-3-yl)-1,3-dioxoisoindolin-5-yl)prop-2-yn-1-yl)amino)-2-oxoethoxy)-2-((R)-2-phenylmorpholine-4-carbonyl)pyrrolidin-1-yl)-3,3-dimethyl-1-oxobutan-2-yl)carbamoyl)benzo[b]thiophen-5-yl)difluoromethyl)phosphonic acid]	> 10	
Cc1ncsc1-c1ccc([C@H](C)NC(=O)[C@@H]2C[C@@H](O)CN2C(=O)[C@@H](NC(=O)CCCNC(=O)COc2ccc3c(c2)CN(C(=O)[C@@H](NC(=O)c2cc4cc(C(F)(F)P(=O)(O)O)ccc4s2)C(C)(C)C)[C@H](C(=O)N2CCC[C@H](c4ccccc4)C2)C3)C(C)(C)C)cc1 [Compound 472, (difluoro(2-(((S)-1-((S)-7-(2-((4-(((S)-1-((2S,4R)-4-hydroxy-2-(((S)-1-(4-(4-methylthiazol-5-yl)phenyl)ethyl)carbamoyl)pyrrolidin-1-yl)-3,3-dimethyl-1-oxobutan-2-yl)amino)-4-oxobutyl)amino)-2-oxoethoxy)-3-((R)-3-phenylpiperidine-1-carbonyl)-3,4-dihydroisoquinolin-2(1H)-yl)-3,3-dimethyl-1-oxobutan-2-yl)carbamoyl)benzo[b]thiophen-5-yl)methyl)phosphonic acid]	> 10	
